Measured values as given in PubChem BioAssay (NCI).
Values joined by “and” are separate entries in the source; they are usually repeats but may differ in a detail not shown here. Equal values may be shown once.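 Five compound concentrations were applied to cells in 96-well plates for 48 hours; endpoints were derived by simple linear interpolation of the resulting dose-response curve. The concentration for 50% growth inhibition is given as GI50. Definition used: TGI = concentration required for complete inhibition of growth.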

Columns and labels:
Test in all cases: inhibition of tumour cell growth, NCI panel, 48 h
[1] = tested on: MALME-3M melanoma
[2] = tested on: NCI-H522 lung
[3] = tested on: RPMI-8226 leukemia
[4] = tested on: IGROV1 ovarian
[5] = tested on: CCRF-CEM leukemia
[6] = tested on: HOP-62 NSCLC
[7] = tested on: LOX IMVI melanoma
[8] = tested on: COLO 205 colon
[9] = tested on: UACC-62 melanoma
[10] = tested on: SNB-19 CNS

Compound	TGI [1]	TGI [2]	TGI [3]	TGI [4]	TGI [5]	TGI [6]	TGI [7]	TGI [8]	TGI [9]	TGI [10]	GI50 [1]	GI50 [2]	GI50 [3]	GI50 [4]	GI50 [5]	GI50 [6]	GI50 [7]	GI50 [8]	GI50 [9]	GI50 [10]
CC12CCC3(OCCO3)C(OC(=O)c3ccccc3)=C1CCC21OCCO1 (stereo not given)	> 100 µM	> 100 µM	> 100 µM	> 100 µM	> 100 µM	> 100 µM	> 100 µM	> 100 µM	> 100 µM	> 100 µM	–	–	–	–	–	–	–	–	–	–
CCC(=C/[C@H](C)C/C=C/C(C)=C/[C@@H](C)C(=O)[C@@H](C)[C@H](O)[C@@H](C)CC)/C=C/[C@@H]1OC(=O)C=C[C@H]1C	0.0157 µM	< 0.01 µM	< 0.01 µM	–	0.16 µM	< 0.01 µM	< 0.01 µM	< 0.0166 µM	–	–	< 0.01 µM	< 0.01 µM	< 0.01 µM	< 0.01 µM	0.0201 µM	< 0.01 µM	< 0.01 µM	< 0.01 µM	< 0.01 µM	< 0.01 µM
C=C1CCC2C3(C)COC(c4ccccc4)OC3CCC2(C)C1/C=C/C1=CCOC1=O (stereo not given)	32.6 µM	14.9 µM	5.69 µM	11.9 µM	5.65 µM	46.7 µM	4.25 µM	16.8 µM	22.9 µM	> 100 µM	15.6 µM	3.65 µM	1.69 µM	3.4 µM	1.89 µM	22.9 µM	1.7 µM	4.09 µM	6.82 µM	35.8 µM
CC(C)=CCC/C(C)=C/CC/C(C)=C/CSc1ccccc1C(=O)O	66.2 µM	52 µM	73.1 µM and 81.4 µM	70.5 µM and 35.5 µM	> 100 µM and 74.2 µM	35.2 µM and 30.6 µM	> 68.5 µM and 35.4 µM	> 100 µM and 48.4 µM	35 µM and 34 µM	> 100 µM and 41.1 µM	25.6 µM	21.6 µM	25.2 µM	29.3 µM	32.3 µM	–	26.6 µM	36.8 µM	–	39.7 µM
C#Cc1c(/C=C/C(=O)OCC)ccc2ccccc12	41.2 µM	31.1 µM	29.3 µM	26.2 µM	30.9 µM	95.5 µM	27.4 µM	33.5 µM	27.5 µM	> 100 µM	13.1 µM	13.4 µM	10.7 µM	5.77 µM	14.6 µM	28.5 µM	13.1 µM	13.8 µM	11.6 µM	36.8 µM
O=C(c1ccccc1)C1OC1c1ccc([N+](=O)[O-])cc1 (stereo not given)	> 100 µM	7.11 µM	> 100 µM	11.6 µM	> 100 µM	65.9 µM	10.8 µM	30.4 µM	42.5 µM	> 100 µM	6.22 µM	2.13 µM	8.29 µM	3.01 µM	2.89 µM	4.76 µM	1.81 µM	12.9 µM	11.3 µM	26.2 µM
Cc1nnc(-c2cccc(-c3ccc(C(=O)NCC4CC4)cc3)c2)o1	> 25 µM	> 25 µM	> 25 µM	> 25 µM	> 25 µM	> 25 µM	> 25 µM	> 25 µM	> 25 µM	> 25 µM	> 25 µM	> 25 µM	> 25 µM	> 25 µM	> 25 µM	> 25 µM	> 25 µM	> 25 µM	> 25 µM	> 25 µM
O=C(O)C1(C(=O)O)CCC1.[NH2-].[NH2-].[Pt+2]	180 µM and 192 µM	145 µM and 190 µM	234 µM and > 250 µM	130 µM and 194 µM	> 250 µM	240 µM and > 250 µM	211 µM and 175 µM	> 250 µM	140 µM and > 250 µM	224 µM and > 250 µM	72.2 µM and 107 µM	54.9 µM and 95.7 µM	165 µM and 186 µM	47.2 µM and 91.8 µM	73.5 µM and 22.7 µM	139 µM and > 250 µM	70.2 µM and 70.7 µM	224 µM and > 250 µM	35.1 µM and > 114 µM	148 µM and 103 µM
NCC1OC(n2cnc3c(N)ncnc32)CC1O (stereo not given)	> 100 µM	> 100 µM	> 100 µM	> 100 µM	> 100 µM	> 100 µM	> 100 µM	> 100 µM	> 100 µM	> 100 µM	–	–	–	–	–	–	–	–	–	–
C#CCSc1cc(Cl)c(C)cc1S(=O)(=O)Nc1nc2ccccc2o1	73.5 µM	61.5 µM	> 100 µM	> 100 µM	> 100 µM	65.6 µM	> 100 µM	71.7 µM	61.9 µM	> 100 µM	28.1 µM	25.7 µM	38.1 µM	34.8 µM	26.2 µM	29 µM	36 µM	26 µM	25.5 µM	44.5 µM
CCC[CH2][Sn]1([CH2]CCC)[O]CC(CN(C)Cc2ccccc2)[O]1 (stereo not given)	9.21 µM	4.61 µM	7.79 µM	30.5 µM	8.09 µM	27.7 µM	16.2 µM	16 µM	16.1 µM	25.2 µM	2.72 µM	1.94 µM	2.75 µM	14.8 µM	2.37 µM	14.1 µM	4.12 µM	5.31 µM	4.31 µM	12.6 µM
CS(=O)(=O)CCc1cccc(C(=O)c2cnn(-c3ccc(F)cc3)c2N)c1	> 25 µM	> 25 µM	> 25 µM	> 25 µM	> 25 µM	> 25 µM	> 25 µM	> 25 µM	> 25 µM	> 25 µM	> 25 µM	> 25 µM	> 25 µM	> 25 µM	> 25 µM	> 25 µM	> 25 µM	> 25 µM	> 25 µM	> 25 µM
COCc1cc(C(=O)Nc2cc([C@H]3CC[C@@H](OC(=O)NC(C)C)C3)[nH]n2)n(C)n1	74.1 µM	47.2 µM	47 µM	> 100 µM	70.2 µM	88.4 µM	75.5 µM	16.3 µM	36.4 µM	> 100 µM	24.2 µM	16.2 µM	14.2 µM	4.74 µM	4.78 µM	8.6 µM	4.15 µM	3.15 µM	11.5 µM	12.7 µM
